Experimental findings from PubChem BioAssay AID624395 (The Scripps Research Institute Molecular Screening Center, 2012) are described below.

Active and inactive are the calls of the source. No rule for the calls is given here.

The experiment deals with cell-based VP16 transactivation luciferase luminescence. Kind of experiment: VP16 transactivation luciferase reporter inhibitors, dose response, counter-screen for NR2E3 agonist project, cell-based, luminescence (AID 624395). A general note: In a reporter assay the amount or activity of a reporter protein is the signal.
As to `Cc1cccc(Cc2cnc(N3C(=N)SC(C)C3=O)s2)c1` (stereo unspecified), the IC50 was 4.96 µM. For `COc1ccc(C)cc1NC(=O)NC1CC(=O)N(c2ccc3c(c2)OCCO3)C1` (stereo unspecified), the IC50 is 20.3 µM (inactive). `O=C(/C=C/c1ccc([N+](=O)[O-])o1)NNC(=O)c1ccc(F)cc1`: the IC50 was 24.2 µM (inactive). As for `Cc1cnc(NC(=O)CCCc2nc3ccccc3s2)s1`, the figure is 5.07 µM; as for `COc1cccc(N2CCN(c3nc(-c4ccccc4C)cc(=O)[nH]3)CC2)c1`, 4.57 µM; as for `Cc1nn(Cc2cccc(F)c2)c(C)c1NC(=O)c1ccc(COc2ccccc2Cl)cc1`, 11.7 µM (inactive). As for `CCC(=O)N1CCCc2cc(S(=O)(=O)N3CCN(c4ccccn4)CC3)ccc21`, the figure is 22.5 µM (inactive); as for `COc1cccc2c1C(=O)c1c(O)c3c(c(O)c1C2=O)CC(O)(C(C)=O)CC3OC1CC(N(C)C)C(O)C(C)O1` (stereo unspecified), 3.21 µM.

With `CCCCCCCCCCCCN1[C@@H](CC(=O)O)c2cc(C(F)(F)F)ccc2S1(=O)=O`, the IC50 was 8.1 µM. For `O=S(=O)(NC1CCCC1)c1ccc(S(=O)(=O)N2CCc3ccccc32)cc1` the value was 4.59 µM; for `N=C1SCC(=O)N1c1ncc(Cc2ccccc2Cl)s1`, 10.5 µM (inactive); for `O=C1c2ccccc2C(=O)c2[nH]c(=O)[nH]c21`, 4.74 µM. As for `Cc1onc(-c2ccccc2Cl)c1C(=O)Nc1nc2c(s1)CCCC2`, the figure is > 39.8 µM (inactive); as for `CC(C)(C)c1ccc(CSc2nc(N)cc(=O)[nH]2)cc1`, 4.53 µM. As for `COc1ccc(S(=O)(=O)N2CCCCC2)cc1NC(=S)Nc1ccccc1`, the figure is > 39.8 µM (inactive). Turning to `CC(=O)c1c(C)[nH]c(C(=O)OCC(=O)c2ccc(Br)cc2)c1C`, the IC50 was 3.45 µM.

For `Cc1cc(C)cc(NC(=O)CCc2nc3sc4c(c3c(=O)[nH]2)CCCC4)c1`, the IC50 is > 39.8 µM (inactive). For `Cc1cccc(/C=N/Nc2cc(N3CCOCC3)nc(N3CCOCC3)n2)c1` the value was 5.91 µM; for `Cc1ccc(S(=O)(=O)N2[C@@H](c3ccc(Cl)c(Cl)c3)C(C(=O)O)=C[C@H]2CC2CCCC2)cc1`, 12 µM (inactive); for `C=CCn1c(C)cc(C(=O)CN2C(=O)c3ccccc3S2(=O)=O)c1C`, 2.31 µM.

In the case of `O=C(CSc1nnnn1-c1ccccc1)Nc1nsc(-c2ccc(Cl)cc2)n1`, the IC50 was 0.833 µM. For `COc1ccc(NC(=O)c2sc(=O)n(Cc3ccc(F)c(Cl)c3)c2C)cc1OC` the value was 20.6 µM (inactive); for `O=C(OC(c1ccccc1)c1nccc2ccccc12)c1ccccc1` (stereo unspecified), 0.242 µM. For `OC[C@@H]1CN(Cc2ccc(-c3ccccc3)cc2)C[C@H](n2cnc3c(NCc4ccncc4)ncnc32)O1` the value was 4.44 µM; for `COc1cc2nc(CN3CC=C(c4ccccc4)CC3)[nH]c(=O)c2cc1OC`, 1.91 µM. Regarding `CCCCOc1ccc(CONS(=O)(=O)c2ccc(NC(C)=O)cc2)cc1Cl`, the IC50 is 4.03 µM. For `N#C/C(=C\c1ccc(Sc2nc3ccccc3[nH]2)o1)c1ccccc1` the value was 4.65 µM; for `O=c1cc(C(F)(F)F)nc(SC/C=C/c2ccccc2)[nH]1`, 13 µM (inactive).

On to `Cc1ccc(S(=O)(=O)N(CC(=O)Nc2ccccc2C(=O)O)c2cccc(Cl)c2C)cc1`, for which the IC50 is 18.8 µM (inactive).

With `O=S(=O)(/C(=C\c1ccc(C(F)(F)F)cc1)c1nc2ccccc2[nH]1)c1ccccc1`, the IC50 is 10.8 µM (inactive). For the compound `CCC(Sc1nc(C)cc(=O)[nH]1)C(=O)Nc1sc2c(c1C#N)CCCC2` (stereo unspecified), the IC50 is 5.06 µM. As for `Cc1cccc(NS(=O)(=O)c2ccc(-c3cnc(C4CC4)o3)cc2)c1C`, the concentration for half-maximal inhibition (IC50) was 5.28 µM. Turning to `CC[C@@]1(O)C(=O)OCc2c1cc1n(c2=O)Cc2cc3c(N)cccc3nc2-1`, the IC50 is 1.99 µM. For `CCN(CC)S(=O)(=O)c1ccc(NC(=O)Nc2cccc(C(F)(F)F)c2)cc1`, the IC50 was 7.08 µM. For `Cc1ccc(NC(=S)/C(C#N)=C2/Nc3ccccc3S2)cc1` the value was 2.76 µM; for `CCC1(O)C(=O)OCc2c1cc1n(c2=O)Cc2cc3c(N)cccc3nc2-1` (stereo unspecified), 2.33 µM; for `CN(C)c1ccc(/C=C/c2ccc3ccccc3[n+]2C)cc1`, 13 µM (inactive).

In the case of `Cc1cccc(C(=O)N[C@H](C(=O)Nc2ncc(C)s2)C(C)C)c1`, the IC50 was 12.1 µM (inactive). For `COc1cnc(-c2ccccn2)nc1N(C)c1ccccc1` the value was 5.76 µM. For `Cc1sc(NC(=O)/C=C/c2ccc3c(c2)OCO3)nc1-c1ccccc1` the value was 7.11 µM; for `Cc1ccc(OCCOC(=O)c2cc(S(=O)(=O)N3CCCCC3)ccc2N2CCOCC2)cc1`, 8.95 µM; for `CCCc1cc(=O)n2nc(N3CCC(C(=O)N4CCN(c5ccc(OC)cc5)CC4)CC3)sc2n1`, 4.44 µM. As for `COc1ccc(-n2c(C)cc(C(=O)COC(=O)c3ccc(O)cc3O)c2C)cc1`, the figure is 4.48 µM; as for `CCc1nnc(NC(=O)c2ccc(S(=O)(=O)N3CCCc4ccccc43)cc2)o1`, 6.8 µM; as for `Cc1cc2sc3ccc(C#CC4(O)CCCCC4)cc3c(=O)c2cc1C`, 0.00878 µM. In the case of `O=C(Nc1ccc(Cn2cccn2)cc1)c1ccc(COc2ccccc2Br)cc1`, the IC50 is > 39.8 µM (inactive). For `Cc1c(C(=O)Nc2ccc(Oc3ccccc3)cc2)sc2nc3n(c(=O)c12)CCC3` the value was 5.11 µM. As for `CCCCCCCCCCCCN1[C@@H](CC(=O)O)c2cc(F)ccc2S1(=O)=O`, the IC50 was 8.51 µM. For `Cc1cc(NC(=O)CSc2nc3c(sc4ccccc43)c(=O)n2CCCN2CCOCC2)n[nH]1` the value was > 39.8 µM (inactive); for `CCc1cc(OCCCSc2nc(C)cc(=O)[nH]2)ccc1Cl`, 7.05 µM; for `COc1cccc(C(=O)c2sc(NC(C)C)nc2N)c1`, 5.16 µM. Take `O=S(=O)(/C=C/C=C/S(=O)(=O)c1ccccc1)c1ccccc1`: the IC50 is 11.7 µM (inactive). For `O=C(COC(=O)c1cc([N+](=O)[O-])ccc1N1CCOCC1)Nc1ccc(Cl)cn1` the value was 31.8 µM (inactive); for `O=C(Nc1ccccc1Cl)/C(Cl)=C(\Cl)S(=O)c1ccccc1` (stereo unspecified), 4.1 µM. As for `N#Cc1c(-c2ccccc2)cc(-c2ccccc2)nc1SCCC(=O)O`, the figure is 31.5 µM (inactive); as for `S=C(NN=Cc1ccccn1)Nc1ccccn1`, 4.44 µM.

Regarding `O=[N+]([O-])c1ccc(NC(=S)NCCc2ccc(F)cc2)cc1`, the IC50 is 5.02 µM. As for `CCCCC[C@@H]1C=C(C(=O)O)[C@H](c2ccc(Cl)c(Cl)c2)N1S(=O)(=O)c1ccc(C)cc1`, the figure is 8.77 µM; as for `c1ccc(C(Cc2nc(-c3ccncc3)no2)c2ccccc2)cc1`, 4.37 µM; as for `O=C1C=CC2(O[C@H](c3ccccc3)[C@@H](c3ccccc3)O2)[C@H](Sc2ccccc2O)C1`, 4.89 µM. As for `c1coc(CNc2ncnc3ccccc23)c1`, the figure is 4.45 µM; as for `CC1CC(C)C(=NNC(N)=O)C(C(O)CC2CCC(=O)NC2=O)C1` (stereo unspecified), 4.07 µM. For `Cc1c(Cl)ccc2sc(N3CCN(C(=O)C4=COCCO4)CC3)nc12` the value was 7 µM; for `CN1C2CCC1/C(=C/c1ccccn1)C(=O)/C2=C\c1ccccn1`, 4.5 µM; for `CCc1ccccc1Nc1nn2c(=O)c3ccc(C(=O)NCc4ccccn4)cc3nc2s1`, > 13.3 µM (inactive). Regarding `COC(CNC(=O)CSCc1nc(-c2ccc(SC)cc2)oc1C)OC`, the IC50 was 2.61 µM. For `O=C1/C(=C\c2ccc([N+](=O)[O-])cc2)CS(=O)(=O)C/C1=C/c1ccc([N+](=O)[O-])cc1` the value was 4.12 µM. As for `CNC(=S)/N=C/NOCc1ccc(Cl)cc1Cl`, the figure is 5.03 µM; as for `Cc1sc2ncnc(NCC(O)c3ccccc3)c2c1C` (stereo unspecified), 4.74 µM. For `C=C1C(=O)O[C@@H]2C[C@@H](C)[C@@H]3C=CC(=O)[C@@]3(C)[C@@H](O)[C@H]12` the value was 4.37 µM; for `O=C(c1cc(S(=O)(=O)N2CCN(c3ccccc3)CC2)ccc1Cl)N1CCCCCCC1`, 2.51 µM. As for `COc1ccc(NC(=O)/C(Cl)=C(/Cl)S(=O)(=O)Cc2ccccc2)cn1`, the IC50 is 5.13 µM. For `CCN(c1ccccc1)S(=O)(=O)c1ccc(C(=O)Nc2nnc(CSC)o2)cc1` the value was 12.7 µM (inactive). As for `N#C/C(=N\Nc1ccc(Cl)c(Cl)c1)C(=O)C1CC1`, the figure is 1.04 µM. As for `COc1ccc(S(=O)(=O)N2CCCCC2)cc1NC(=S)Nc1cccc(Cl)c1C`, the figure is > 39.8 µM (inactive). As for `Cc1nc2ncnn2c(N2CCN(c3cccc(C(F)(F)F)c3)CC2)c1C`, the 50% inhibitory concentration (IC50) is 6.46 µM. As for `Cc1ccc(S(=O)(=O)N2[C@@H](c3ccc(Cl)cc3)C(C(=O)O)=CC[C@H]2c2ccc(C(C)C)cc2)cc1`, the figure is 7.56 µM; as for `CCC1(O)C(=O)OCc2c1cc1n(c2=O)Cc2cc3cc(O)ccc3nc2-1` (stereo unspecified), 3.4 µM. For `Clc1cc2cccnc2c2ncccc12`, the IC50 is 12.1 µM (inactive). For `Cc1cc(C(=O)CSc2nnc3ccccn23)c(C)n1-c1ccccc1` the value was 25.7 µM (inactive); for `CCn1c(=O)cc(SCC(=O)Nc2ccc(C)cn2)c2ccccc21`, 4.63 µM. As for `O=C(C1CCC(CNS(=O)(=O)c2cccc3nsnc23)CC1)N1CC=C(c2ccccc2)CC1` (stereo unspecified), the figure is 6.86 µM. As for `CCOC(=O)Cc1nnc2c(Nc3ccccc3F)nc3nonc3n12`, the figure is 4.03 µM. As to `O=C(CN1C(=O)C(c2ccc(F)cc2)=NC12CCCC2)Nc1ccc(F)cc1`, the IC50 is 4.48 µM. For `O=C(O)c1ccc(S(=O)(=O)/N=C2\C=C(Nc3ccccc3F)C(=O)c3ccccc32)cc1` the value was 4.45 µM; for `CN(C)c1ncnc2c1ccn2C1OC(CO)C(O)C1O` (stereo unspecified), 0.53 µM. For `COc1ccc(NC2c3ccccc3C(=O)N2Cc2ccccc2Cl)cc1OC` (stereo unspecified) the value was > 39.8 µM (inactive).

For the compound `COc1ccc(C[C@@H]2OC3(C=CC(=O)C=C3)O[C@H]2Cc2ccc(OC)cc2)cc1`, the IC50 is 0.845 µM. As for `Cc1cc(C(=O)Nc2ccc(Cl)cc2)c(C)n1-c1ccccc1`, the figure is 0.00684 µM; as for `Cc1ccnc(NC(=S)N2CCN(c3cccc(C(F)(F)F)c3)CC2)c1`, 12.3 µM (inactive); as for `COc1ccc(CNC(=O)c2c(C)oc3c2C(=O)c2ccccc2C3=O)cc1`, 1.18 µM.

For orientation: IC50 means the concentration at which inhibition is half-maximal.
